Laboratory results as given in patent US11433070B2, “Synergistic anti-inflammatory compositions” (The Procter & Gamble Company, priority 2019, dated 2022).

Tests used:
[1] = tested on: PGE2 release from TERT keratinocytes (tKC); assay: PGE2 assay: inhibition of PGE2 release from UVB-stressed keratinocytes, normalized to ATP; assay type: cell-based, human; conditions: for AVG PGE2 % Control / AVG PGE2 % Inhibition: piroctone olamine 1E-7% (w/v), alone or combined (observed), 15 mJ/cm2 UVB, 18-24 h; for Inhibiting PGE2 release from keratinocytes, individually (in words): each material alone
Source text: Inhibiting the Cell's Inflammation Response to a Stressor-Prostaglandin E2 (“PGE2”) Assay. […] PGE2 is a hormone-like substance that is known to participate in modulation of inflammation. Cellular inflammation is associated with a variety of hair, skin and scalp conditions, and thus inhibiting PGE2 activation vis-à-vis cellular inflammation may help treat these types of hair, skin and scalp conditions. TERT keratinocytes (tKC) are human keratinocytes which have been transfected with the human telomerase reverse transcriptase gene to immortalize the cells. They are obtained from Jerry Shay, University of Texas, Southwestern and plated at 40,000 cells/well into 24-well plates in 1 ml/well volume. EpiLife Medium (Life Technologies cat #[…]500) supplemented with keratinocyte growth supplement (Life technologies cat #S-001-5) is used as the assay media. The cells are grown to confluence/near confluence, (typically 24 hours after plating 40,000 cells/well in 24 well plate) and then subjected to 15 mJ/cm^2 UVB-stress (typically 14-16 exposure time in BioSun). […] The supernatant is removed from each well, and the cells are rinsed with 2 ml/well medium (without supplements). A Cell Titer-Glo assay (Promega cat #G7571; Madison Wis.) is used to measure ATP activity, which is conducted on the cells for normalization. The supernatant is tested in a PGE2 assay (Prostaglandin E2 Assay kit from Cisbio Bioassays cat #62P2APEB) according to the manufacturer's instructions. The PGE2 results are normalized to ATP activity. The PGE2 quantitation (pg/mL) from the supernatant is divided by the normalization factor (treatment ATP/control ATP). […] Synergy factor is simply the ratio of observed combination/expected combination.

TERT keratinocytes (tKC) = assay: Cell Titer-Glo assay measuring ATP activity, used for normalization; assay type: cell-based, human; conditions: example calculation; vehicle control 704567
Experimental: TERT keratinocytes (tKC) are human keratinocytes which have been transfected with the human telomerase reverse transcriptase gene to immortalize the cells. They are obtained from Jerry Shay, University of Texas, Southwestern and plated at 40,000 cells/well into 24-well plates in 1 ml/well volume. EpiLife Medium (Life Technologies cat #[…]500) supplemented with keratinocyte growth supplement (Life technologies cat #S-001-5) is used as the assay media. The cells are grown to confluence/near confluence, (typically 24 hours after plating 40,000 cells/well in 24 well plate) and then subjected to 15 mJ/cm^2 UVB-stress (typically 14-16 exposure time in BioSun). […] The supernatant is removed from each well, and the cells are rinsed with 2 ml/well medium (without supplements). A Cell Titer-Glo assay (Promega cat #G7571; Madison Wis.) is used to measure ATP activity, which is conducted on the cells for normalization. The supernatant is tested in a PGE2 assay (Prostaglandin E2 Assay kit from Cisbio Bioassays cat #62P2APEB) according to the manufacturer's instructions. The PGE2 results are normalized to ATP activity. The PGE2 quantitation (pg/mL) from the supernatant is divided by the normalization factor (treatment ATP/control ATP).

[2] = cited from earlier work
[3] = 1:1 azoxystrobin:PO block, azoxystrobin 1E-7%
[4] = 1:10 azoxystrobin:PO block, azoxystrobin 1E-8%
[5] = 1:50 azoxystrobin:PO block, azoxystrobin 2E-9%
[6] = 4:1 azoxystrobin:PO block, azoxystrobin 4E-7%

| Structure (SMILES) | AVG PGE2 % Control [1, 3] | AVG PGE2 % Inhibition [1, 3] | AVG PGE2 % Control [1, 4] | AVG PGE2 % Inhibition [1, 4] | AVG PGE2 % Control [1, 5] | AVG PGE2 % Inhibition [1, 5] | AVG PGE2 % Control [1, 6] | AVG PGE2 % Inhibition [1, 6] | Inhibiting PGE2 release from keratinocytes, individually (in words) [1] | % inhibition (PGE2) ([1]; example calculation vs vehicle control) | Normalized PGE2 value ([1]; example calculation, PGE2 quantitation divided by normalization factor, control 2458) | PGE2 quantitation ([1]; example calculation, supernatant, before ATP normalization, vehicle control 2458 pg/mL) | Luminescence in ATP assay (TERT keratinocytes (tKC)) | Solubility in water (in words) [2] |
| --- | --- | --- | --- | --- | --- | --- | --- | --- | --- | --- | --- | --- | --- | --- |
| CO/C=C(/C(=O)OC)c1ccccc1Oc1cc(Oc2ccccc2C#N)ncn1 [azoxystrobin] | 92% | 8% | 99% | 1% | 99% | 1% | 87% | 13% | relatively weak | 8% | 2261 | 2347 pg/mL | 678903 | low solubility in water |
| Cc1cc(CC(C)CC(C)(C)C)n(O)c(=O)c1.NCCO (centres unmarked) [piroctone olamine, 1-Hydroxy-4-methyl-6-(2,4,4-trimethylpentyl)-2-pyridone monoethanolamine salt] | 96.5% | 3.5% | 96.2% | 3.8% | 96.2% | 3.8% | 96.2% | 3.8% | relatively weak | – | – | – | – | – |
